# Tested on: ADtg mice
# Test: Barnes maze behavioral test in AD mice
# Format: in vivo, mouse
# Protocol: ADtg mice (10 months old) received subcutaneous injections of GA [also known as Cop-1 and Copaxone®; 100 μg in phosphate-buffered saline (PBS)] or PBS alone (control group) twice a week for 1 week and then once a week for 8 weeks. For evaluation of innate immune infiltration to the brain by flow cytometry, 10-month-old ADtg mice received subcutaneous injections of GA (100 mg in PBS) or PBS alone twice a week for 1 week and then once a week for 3 weeks. At the end of the study, all mice were anaesthetized and then perfused with ice-cold PBS with 0.5 mM EDTA, after which their organs were collected and analyzed or fixed in 2.5% paraformaldehyde (Sigma-Aldrich), and cryoprotected with 30% sucrose for further histological analysis.
# CD115^+ monocytes from mice donors were isolated as previously reported (Koronyo et al., Brain: a journal of neurology 2015,138:2399-2422). […]
# The Barnes maze is a spatial-learning task that allows subjects to use spatial cues to locate a means of escape from a mildly aversive environment (open space with light projection); mice are required to use spatial cues to find an escape location. The mice are assessed for their ability to learn the location of an escape box over the course of 9 days in the Barnes maze apparatus. […]
substance,measurement,value
glatiramer acetate [GA],cognition,retained cognition

# Source: patent US11779600B2, “Methods of treating or preventing alzheimer's disease and associated conditions” (CEDARS-SINAI MEDICAL CENTER, priority 2016, dated 2023)
